Measured values as given in patent publication US10633397B2, “Substituted polycyclic pyridone derivatives and prodrugs thereof” (priority 2015, dated 2020).
Converted amounts (≈) assume the structure as drawn. Where two headings read alike, the source gives them in different places.

Tests used:
[1] = physchem; assay type: physicochemical; conditions: kinetic from dmso stock; 1% DMSO addition conditions; JP-1 or JP-2 solution not stated in result
Procedure: Test Example 9: Solubility Test
A 10 mmol/L solution of the compound was prepared with DMSO, and 2 μL of the solution of the compound of the present invention was added, respectively, to 198 μL of JP-1 solution (water were added to 2.0 g of sodium chloride and 7.0 mL of hydrochloric acid to reach 1000 mL) and JP-2 solution (1 volume of water were added to 1 volume of the solution which 3.40 g of potassium dihydrogen phosphate and 3.55 g of anhydrous disodium hydrogen phosphate to reach 1000 mL). The mixture was shaked for 1 hour at a room temperature, and the mixture was filtered. The filtrate was ten-fold diluted with methanol/water=1/1(v/v), and the compound concentration in the filtrate was measured with LC/MS or SPE/MS by the absolute calibration method.

[2] = Metabolism stability test; assay type: in vitro ADME; conditions: human liver microsomes, 30 minutes, 37° C., 2 μmol/L of test compound
Procedure: Test Example 5: Metabolism Stability Test
Using commercially available pooled human hepatic microsomes, a compound of the present invention was reacted for a constant time, and a remaining rate was calculated by comparing a reacted sample and an unreacted sample, thereby, a degree of metabolism in liver was assessed.
A reaction was performed (oxidative reaction) at 37° C. for 0 minute or 30 minutes in the presence of 1 mmol/L NADPII in 0.2 mL of a buffer (50 mmol/L Tris-HCl pH 7.4, 150 mmol/L potassium chloride, 10 mmol/L magnesium chloride) containing 0.5 mg protein/mL of human liver microsomes. After the reaction, 50 μL of the reaction solution was added to 100 μL of a methanol/acetonitrile=1/1 (v/v), mixed and centrifuged at 3000 rpm for 15 minutes. The compound of the present invention in the supernatant was quantified by LC/MS/MS or Solid Phase Extraction (SPE)/MS, and a remaining amount of the compound of the present invention after the reaction was calculated, letting a compound amount at 0 minute reaction time to be 100%. Hydrolysis reaction was performed in the absence of NADPII and glucuronidation reaction was in the presence of 5 mM UDP-glucuronic acid in place of NADPH, followed by similar operations.

[3] = biological target: T1, hERG (IKr) (Homo sapiens, UniProt Q12809); test: hERG test; assay type: cell-based; conditions: HEK293 cells expressing hERG channel, pH 7.4, 0.3 to 10 μM of test compound, read-out: % inhibition of tail peak current (IKr)
T1 construct: expressed in transfected cells; host or cells: HEK293
T1 sequence (Q12809 whole entry): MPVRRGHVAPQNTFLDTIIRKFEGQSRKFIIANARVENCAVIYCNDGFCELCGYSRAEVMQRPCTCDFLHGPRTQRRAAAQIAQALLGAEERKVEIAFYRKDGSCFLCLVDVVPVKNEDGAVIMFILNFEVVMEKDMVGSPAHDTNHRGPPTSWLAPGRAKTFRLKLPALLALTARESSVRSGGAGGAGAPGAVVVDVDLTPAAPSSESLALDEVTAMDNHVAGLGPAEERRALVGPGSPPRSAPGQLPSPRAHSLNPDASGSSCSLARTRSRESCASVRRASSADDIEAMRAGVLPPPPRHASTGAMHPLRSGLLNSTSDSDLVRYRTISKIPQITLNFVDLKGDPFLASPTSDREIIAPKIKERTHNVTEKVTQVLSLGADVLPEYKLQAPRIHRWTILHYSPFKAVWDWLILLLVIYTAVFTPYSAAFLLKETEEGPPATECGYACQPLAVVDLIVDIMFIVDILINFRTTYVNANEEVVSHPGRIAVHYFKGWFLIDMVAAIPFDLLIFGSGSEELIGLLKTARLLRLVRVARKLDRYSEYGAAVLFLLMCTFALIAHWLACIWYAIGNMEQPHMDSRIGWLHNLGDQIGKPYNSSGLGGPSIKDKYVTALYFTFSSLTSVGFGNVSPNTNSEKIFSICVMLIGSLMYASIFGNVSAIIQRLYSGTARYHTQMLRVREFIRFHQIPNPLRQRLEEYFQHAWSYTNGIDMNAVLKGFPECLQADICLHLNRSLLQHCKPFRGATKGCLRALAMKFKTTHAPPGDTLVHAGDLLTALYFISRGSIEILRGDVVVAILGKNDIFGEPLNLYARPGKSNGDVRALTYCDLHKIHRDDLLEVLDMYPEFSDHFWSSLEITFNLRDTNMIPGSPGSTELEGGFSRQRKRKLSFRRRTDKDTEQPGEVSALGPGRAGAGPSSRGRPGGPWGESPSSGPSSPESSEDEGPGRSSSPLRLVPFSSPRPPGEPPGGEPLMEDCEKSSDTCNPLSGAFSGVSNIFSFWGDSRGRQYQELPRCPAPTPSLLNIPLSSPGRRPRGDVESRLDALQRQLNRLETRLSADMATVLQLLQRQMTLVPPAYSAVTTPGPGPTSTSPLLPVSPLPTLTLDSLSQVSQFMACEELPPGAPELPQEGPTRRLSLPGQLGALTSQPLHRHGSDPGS
Source text: Test Example 8: hERG Test
For the purpose of assessing risk of an electrocardiogram QT interval prolongation of the compound of the present invention, effects of the compound of the present invention on delayed rectifier K+ current (IKr), which plays an important role in the ventricular repolarization process, was studied using HEK293 cells expressing human ether-a-go-go related gene (hERG) channel.
After a cell was retained at a membrane potential of −80 mV by whole cell patch clamp method using an automated patch clamp system (PatchXpress 7000A, Axon Instruments Inc.), IKr induced by depolarization pulse stimulation at +40 mV for 2 seconds and, further, repolarization pulse stimulation at −50 mV for 2 seconds, was recorded. After the generated current was stabilized, extracellular solution (NaCl: 135 mmol/L, KCl: 5.4 mmol/L, NaH2PO4: 0.3 mmol/L, CaCl2.2H2O: 1.8 mmol/L, MgCl2.6H2O: 1 mmol/L, glucose: 10 mmol/L, HEPES (4-(2-hydroxyethyl)-1-piperazineethanesulfonic acid): 10 mmol/L, pH=7.4), in which the compound of the present invention had been dissolved at an objective concentration, was applied to the cell at room temperature for 10 minutes. From the recording IKr, an absolute value of the tail peak current was measured based on the current value at the resting membrane potential using analysis software (DataXpress ver. 1, Molecular Devices Corporation).

[4] = physchem; assay type: physicochemical; conditions: thermodynamic from solid, 1 hour at 37° C.
Procedure: Test Example 10: Powder Solubility Test
Appropriate amounts of the compound of the present invention was put into vials and 200 μL of JP-1st Fluid (water was added to 2.0 g of sodium chloride in 7.0 mL of hydrochloride acid to reach 1000 mL), JP-2nd Fluid (water was added to 500 mL of phosphate buffer solution with a pH of 6.8) and 20 mmol/L sodium taurocholate (TCA)/JP-2nd Fluid (JP-2nd Fluid was added to 1.08 g of TCA in JP-2nd Fluid to reach 100 mL) was added to each vial. When the compound was completely dissolved, appropriate amount of compound was added. After shaken for 1 hour at 37° C., the mixture was filtered and 100 μL of methanol was added to 100 μL of each filtrate (double dilution). Dilution magnification was changed if necessary. After it was confirmed whether there were air bubbles and precipitates in the vials, the vials were shaken with tight stopper. The compound concentration was determined with HPLC by the absolute calibration method.

[5] = system: red blood cells prepared from a defibrinated blood of sheep; test: Light hemolysis test; assay type: cell-based; conditions: 10 J/cm^2 UV-irradiation, 0.0008 to 0.1 w/v %
Procedure: Test Example 12: Light Hemolysis Test
The compound of the present invention was dissolved at target concentrations and was mixed with a 2.5 v/v % suspension of red blood cells prepared from a defibrinated blood of sheep on a microplate at concentrations of 0.0008 to 0.1 w/v %. The mixtures were exposed to 10 J/cm^2 of UV-irradiation within a range of wavelength 290 to 400 nm, UVA and UVB using ultra violet fluorescent lamps, GL20SE and FL20S-BLB lamps manufactured by Sankyo Denki Co., Ltd. and Panasonic Corporation, respectively. After the completion of the irradiation, the mixtures were centrifuged, and a supernatant of the mixture was collected and was located on a microplate. The phototoxicity was assessed by measuring an absorbance at wavelength of 540 nm and 630 nm in the supernatant. The absorbance data at wavelength of 540 nm and 630 nm were used as indicators of biomembrane damage (photohemolysis %) and hyperoxidation of lipid membrane (methemoglobin formation), respectively. The criteria of phototoxicity was as follows; It was judged to be non-phototoxic (−) when the photohemolysis %<10 and the maximal change in the absorbance at 630 nm (ΔOD)<0.05 were observed. It was judged to be […] when the photohemolysis was more than 10% and the maximal change in the absorbance at 630 nm (ΔOD) was more than 0.05.

## O=C1c2c(O)c(=O)ccn2N([C@@H]2c3ccccc3SCc3c2ccc(F)c3F)[C@@H]2COCCN12 [III-2]
[1]
  solubility: 42.2 µM (≈ 20.4 µg/mL)
[2]
  % compound remaining after microsomal incubation: 90.1%
[3]
  inhibition at 10 min: 7.9%
[4]; pH 1.2, simulated gastric fluid, JP-1 solution, read-out: powder solubility, JP-1 solution
  solubility: 7.1 µg/mL (≈ 14.7 µM)
[4]; pH 6.8, aqueous buffer, JP-2 solution, read-out: powder solubility, JP-2 solution
  solubility: 4.4 µg/mL (≈ 9.1 µM)
[4]; pH 6.8, fassgf or other biorelevant, 20 mmol/L TCA/JP-2 solution
  solubility: 16.1 µg/mL (≈ 33.3 µM)
[5]
  phototoxicity: (−) (It was judged to be non-phototoxic (−) when the photohemolysis %<10 and the maximal change in the absorbance at 630 nm (ΔOD)<0.05 were observed)
